This is an account of results in patent US20230374015A1, “INHIBITORS OF FIBROBLAST GROWTH FACTOR RECEPTOR KINASES” (Kinnate Biopharma Inc., priority 2020, published 2023).

The pIC50 is the IC50 on a negative log10 scale, so that one unit is a factor of ten. A lower pIC50 goes with a large IC50.

pIC50: −log10 of the molar value.

In the first assay the target is FGFR2 (Homo sapiens, UniProt P21802). Kind of assay: FGFR2 Kinase Protocol - Condition 2 (Reaction Biology HotSpot radiometric kinase assay, no preincubation). Type of assay: biochemical. The conditions noted are these: poly[Glu:Tyr] (4:1) 0.2 mg/ml, ATP 100 microM, 2 hr room temperature. On the procedure: Example 2: FGFR2 Kinase Protocol—Condition 2
Sequence of FGFR2 (P21802 22-821): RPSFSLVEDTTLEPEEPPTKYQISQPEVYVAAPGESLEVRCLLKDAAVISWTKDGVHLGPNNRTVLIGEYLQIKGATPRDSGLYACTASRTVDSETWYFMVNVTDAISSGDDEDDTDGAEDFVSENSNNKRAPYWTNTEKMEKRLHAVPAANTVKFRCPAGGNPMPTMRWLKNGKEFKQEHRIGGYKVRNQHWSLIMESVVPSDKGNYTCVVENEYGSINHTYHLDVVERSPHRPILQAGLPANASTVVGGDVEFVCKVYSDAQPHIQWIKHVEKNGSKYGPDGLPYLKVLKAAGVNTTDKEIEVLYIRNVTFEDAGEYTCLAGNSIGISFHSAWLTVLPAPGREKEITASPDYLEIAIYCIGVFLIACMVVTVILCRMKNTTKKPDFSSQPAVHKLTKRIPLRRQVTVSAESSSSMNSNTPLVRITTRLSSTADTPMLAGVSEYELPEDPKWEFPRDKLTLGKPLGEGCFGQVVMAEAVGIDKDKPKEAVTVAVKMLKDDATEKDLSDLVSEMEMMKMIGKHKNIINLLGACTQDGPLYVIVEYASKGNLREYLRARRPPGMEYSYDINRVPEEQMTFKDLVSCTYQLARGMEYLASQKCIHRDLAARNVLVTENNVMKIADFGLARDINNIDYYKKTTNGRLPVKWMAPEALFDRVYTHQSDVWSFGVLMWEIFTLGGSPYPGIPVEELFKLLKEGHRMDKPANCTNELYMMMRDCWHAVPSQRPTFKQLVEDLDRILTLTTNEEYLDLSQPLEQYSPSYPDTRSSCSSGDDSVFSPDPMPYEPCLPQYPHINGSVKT
The Reaction Biology HotSpot assay platform (http://www.reactionbiology.com) was used to measure kinase/inhibitor interactions as described previously (Anastassiadis et al., 2011). In brief, for each reaction, kinase and substrate were mixed in a buffer containing 20 mM HEPES (pH 7.5), 10 mM MgCl2, 1 mM EGTA, 0.02% Brij35, 0.02 mg/mL BSA, 0.1 mM Na3VO4, 2 mM DTT, and 1% DMSO. All compounds were in powder form and freshly solubilized in DMSO for assays. Compounds were then added to each reaction mixture via acoustic dispense using an ECHO 550 nanoliter dispenser. For Human FGFR2 wildtype testing, a peptide substrate, poly[Glu:Tyr] (4:1) was used to promote the reaction at a concentration of 0.2 mg/ml. For Human FGFR2 (V564F) testing, a peptide substrate, poly[Glu:Tyr] (4:1) was used to promote the reaction at a concentration of 0.2 mg/ml. ATP concentration for all assays was maintained at 100 micromolar. Compounds were tested in 10-dose IC50 mode with a 3-fold serial dilution. Compounds were added to plates and ATP was added directly to the wells. ATP (Sigma-Aldrich, St. Louis, MO 63178) and [g33P] ATP (specific activity 10 microCi/microliter) purchased at PerkinElmer (Boston, MA, 02118 Cat #BLU 003H250UC) were added at a final total concentration of 100 microM to each well with no preincubation. Reactions were carried out at room temperature for 2 hr and spotted onto P81 ion exchange cellulose chromatography paper (Reaction Biology). Filter paper was washed in 0.75% phosphoric acid to remove unincorporated ATP. The percent remaining kinase activity relative to a vehicle-containing (DMSO) kinase reaction was calculated for each kinase/inhibitor pair. IC50 values were calculated using Dotmatics Knowledge Solutions Studies curve fitting (Dotmatics, Bishops Stortford, UK, CM23).
In turn, `C=CC(=O)N1C[C@@H](n2nc(C#Cc3c(Cl)cc4c(ncn4CC)c3F)c3c(N)nccc32)C[C@@H]1COC` [Example 117, 1-[(2R,4S)-4-[4-Amino-3-[2-(6-chloro-1-ethyl-4-fluoro-1,3-benzodiazol-5-yl)ethynyl]pyrazolo[4,3-c]pyridin-1-yl]-2-(methoxymethyl)pyrrolidin-1-yl]prop-2-en-1-one] showed a pIC50 of at least 7.00. Still for that read-out and setting: then `C=CC(=O)N1C[C@@H](n2nc(C#Cc3cc4nc(C)n(C(F)F)c4cc3Cl)c3c(N)nccc32)C[C@@H]1COC` [Example 130, 1-[(2R,4S)-4-(4-Amino-3-{2-[6-chloro-1-(difluoromethyl)-2-methyl-1,3-benzodiazol-5-yl]ethynyl}pyrazolo[4,3-c]pyridin-1-yl)-2-(methoxymethyl)pyrrolidin-1-yl]prop-2-en-1-one], with at least 7.00.

Compound `C=CC(=O)N1CC[C@H](n2nc(C#Cc3cc4ncn(CC)c4cc3Cl)c3c(N)nccc32)C1` [Example 133, (S)-1-(3-(4-Amino-3-((6-chloro-1-ethyl-1H-benzo[d]imidazol-5-yl)ethynyl)-1H-pyrazolo[4,3-c]pyridin-1-yl)pyrrolidin-1-yl)prop-2-en-1-one] gave a pIC50 of at least 7.00.

Compound `C=CC(=O)N1C[C@@H](n2nc(C#Cc3c(F)cc4nn(CC)cc4c3F)c3c(N)nccc32)C[C@@H]1COC` [Example 51, 1-((2R,4S)-4-(4-amino-3-((2-ethyl-4,6-difluoro-2H-indazol-5-yl)ethynyl)-1H-pyrazolo[4,3-c]pyridin-1-yl)-2-(methoxymethyl)pyrrolidin-1-yl)prop-2-en-1-one] gave a pIC50 of 6.00 to 7.00. Take `C=CC(=O)N1C[C@@H](n2nc(C#Cc3c(F)cc4c(ncn4C4CC4)c3F)c3c(N)nccc32)C[C@@H]1COC` [Example 73, 1-[(2R,4S)-4-[4-Amino-3-[2-(1-cyclopropyl-4,6-difluoro-1,3-benzodiazol-5-yl)ethynyl]pyrazolo[4,3-c]pyridin-1-yl]-2-(methoxymethyl)pyrrolidin-1-yl]prop-2-en-1-one; formic acid]: the pIC50 was at least 7.00.

The compound `C=CC(=O)N1C[C@@H](n2nc(C#Cc3cc4ncn(C)c4cc3F)c3c(N)ncnc32)C[C@@H]1C(F)F` [Example 177, 1-((2R,4S)-4-(4-amino-3-((6-fluoro-1-methyl-1H-benzo[d]imidazol-5-yl)ethynyl)-1H-pyrazolo[3,4-d]pyrimidin-1-yl)-2-(difluoromethyl)pyrrolidin-1-yl)prop-2-en-1-one] gave a pIC50 of at least 7.00.

In turn, `C=CC(=O)N1C[C@@H](n2nc(C#Cc3cc4ncn(C5CC5)c4cc3F)c3c(N)ncnc32)C[C@@H]1COC` [Example 108, 1-[(2R,4S)-4-[4-Amino-3-[2-(1-cyclopropyl-6-fluoro-1,3-benzodiazol-5-yl)ethynyl]pyrazolo[3,4-d]pyrimidin-1-yl]-2-(methoxymethyl)pyrrolidin-1-yl]prop-2-en-1-one] showed a pIC50 of at least 7.00. For the compound `C=CC(=O)N1C[C@@H](n2nc(C#Cc3c(F)cc4c(nc(C)n4CC)c3F)c3c(N)ncnc32)C[C@@H]1COC` [Example 32, 1-((2R,4S)-4-(4-amino-3-((1-ethyl-4,6-difluoro-2-methyl-1H-benzo[d]imidazol-5-yl)ethynyl)-1H-pyrazolo[3,4-d]pyrimidin-1-yl)-2-(methoxymethyl)pyrrolidin-1-yl)prop-2-en-1-one], the pIC50 is at least 7.00.

Compound `C=CC(=O)N1C[C@@H](n2nc(C#Cc3c(F)cc4c(ncn4C)c3F)c3c(N)ncnc32)C[C@@H]1COC` [Example 55, 1-[(2R,4S)-4-[4-Amino-3-[2-(4,6-difluoro-1-methyl-1,3-benzodiazol-5-yl)ethynyl]pyrazolo[3,4-d]pyrimidin-1-yl]-2-(methoxymethyl)pyrrolidin-1-yl] prop-2-en-1-one] gave a pIC50 of at least 7.00. `C=CC(=O)N1C[C@@H](n2nc(C#Cc3cc4ncn(CC)c4cc3F)c3c(N)nccc32)C[C@@H]1C` [Example 166, 1-((2S,4S)-4-(4-amino-3-((1-ethyl-6-fluoro-1H-benzo[d]imidazol-5-yl)ethynyl)-1H-pyrazolo[4,3-c]pyridin-1-yl)-2-methylpyrrolidin-1-yl)prop-2-en-1-one] gave a pIC50 of at least 7.00.

Regarding `C=CC(=O)N1C[C@@H](n2nc(C#Cc3c(F)cc4c(ncn4C)c3F)c3c(N)ncnc32)C[C@@H]1COC(F)F` [Example 139, 1-[(2R,4S)-4-{4-Amino-3-[2-(4,6-difluoro-1-methyl-1,3-benzodiazol-5-yl)ethynyl]pyrazolo[3,4-d]pyrimidin-1-yl}-2-[(difluoromethoxy)methyl]pyrrolidin-1-yl]prop-2-en-1-one], the pIC50 is at least 7.00.

Consider `C=CC(=O)N1C[C@@H](n2nc(C#Cc3cc4ncn(C)c4c(F)c3Cl)c3c(N)ncnc32)C[C@@H]1COC` [Example 121, 1-[(2R,4S)-4-[4-Amino-3-[2-(6-chloro-7-fluoro-1-methyl-1,3-benzodiazol-5-yl)ethynyl]pyrazolo[3,4-d]pyrimidin-1-yl]-2-(methoxymethyl)pyrrolidin-1-yl]prop-2-en-1-one], for which the pIC50 is at least 7.00.

Consider `C=CC(=O)N1C[C@@H](n2nc(C#Cc3ccc4scnc4c3)c3c(N)ncnc32)C[C@@H]1COC` [Example 112, 1-((2R,4S)-4-(4-Amino-3-(benzo[d]thiazol-5-ylethynyl)-1H-pyrazolo[3,4-d]pyrimidin-1-yl)-2-(methoxymethyl)pyrrolidin-1-yl)prop-2-en-1-one], for which the pIC50 was at least 7.00. The compound `C=CC(=O)N1C[C@@H](n2nc(C#Cc3cc4ncn(C)c4cc3F)c3c(N)nccc32)C[C@@H]1COC` [Example 74, 1-[(2R,4S)-4-[4-Amino-3-[2-(6-fluoro-1-methyl-1,3-benzodiazol-5-yl)ethynyl]pyrazolo[4,3-c]pyridin-1-yl]-2-(methoxymethyl)pyrrolidin-1-yl]prop-2-en-1-one] gave a pIC50 of at least 7.00. On the same count and under the same terms, next, `C=CC(=O)N1CC[C@H](n2cc(C#Cc3cc4ncn(CC)c4cc3Cl)c3c(N)ncnc32)C1` [Example 143, (S)-1-(3-(4-Amino-5-((6-chloro-1-ethyl-1H-benzo[d]imidazol-5-yl)ethynyl)-7H-pyrrolo[2,3-d]pyrimidin-7-yl)pyrrolidin-1-yl)prop-2-en-1-one]: at least 7.00; `C=CC(=O)N1C[C@@H](n2nc(C#Cc3ccc4c(cnn4C)c3)c3c(N)nccc32)C[C@@H]1COC` [Example 35, 1-[(2R,4S)-4-[4-amino-3-[2-(1-methylindazol-5-yl)ethynyl]pyrazolo[4,3-c]pyridin-1-yl]-2-(methoxymethyl)pyrrolidin-1-yl]prop-2-en-1-one]: 6.00 to 7.00; `C=CC(=O)N1C[C@@H](n2nc(C#Cc3c(Cl)cc4c(ncn4CC)c3F)c3c(N)ncnc32)C[C@@H]1COC` [Example 116, 1-[(2R,4S)-4-[4-Amino-3-[2-(6-chloro-1-ethyl-4-fluoro-1,3-benzodiazol-5-yl)ethynyl]pyrazolo [3,4-d]pyrimidin-1-yl]-2-(methoxymethyl)pyrrolidin-1-yl]prop-2-en-1-one]: at least 7.00. Still for that read-out and setting: then `C=CC(=O)N1C[C@@H](n2nc(C#Cc3ccc4c(cnn4CC)c3)c3c(N)nccc32)C[C@@H]1COC` [Example 37, 1-((2R,4S)-4-(4-amino-3-((1-ethyl-1H-indazol-5-yl)ethynyl)-1H-pyrazolo[4,3-c]pyridin-1-yl)-2-(methoxymethyl)pyrrolidin-1-yl)prop-2-en-1-one], with at least 7.00; and `C=CC(=O)N1CC[C@H](n2nc(C#Cc3cc4nc(C)n(C)c4cc3F)c3c(N)ncnc32)C1` [Example 192, 1-[(3S)-3-{4-Amino-3-[2-(6-fluoro-1,2-dimethyl-1,3-benzodiazol-5-yl)ethynyl]pyrazolo[3,4-d]pyrimidin-1-yl}pyrrolidin-1-yl]prop-2-en-1-one], with at least 7.00. `C=CC(=O)N1C[C@@H](n2nc(C#Cc3c(F)cc4c(ncn4C(F)F)c3F)c3c(N)ncnc32)C[C@@H]1COC` [Example 64, 1-[(2R,4S)-4-(4-Amino-3-[2-[1-(difluoromethyl)-4,6-difluoro-1,3-benzodiazol-5-yl]ethynyl]pyrazolo[3,4-d]pyrimidin-1-yl)-2-(methoxymethyl)pyrrolidin-1-yl]prop-2-en-1-one] showed a pIC50 of at least 7.00. In turn, `C=CC(=O)N1C[C@@H](n2nc(C#Cc3cc4nc(C)n(C)c4c(F)c3Cl)c3c(N)ncnc32)C[C@@H]1COC` [Example 125, 1-[(2R,4S)-4-[4-Amino-3-[2-(6-chloro-7-fluoro-1,2-dimethyl-1,3-benzodiazol-5-yl)ethynyl]pyrazolo[3,4-d]pyrimidin-1-yl]-2-(methoxymethyl)pyrrolidin-1-yl]prop-2-en-1-one] had a pIC50 of at least 7.00.

The same assay, now with this note: poly[Glu:Tyr] (4:1) 0.2 mg/ml, ATP 100 microM, 2 hr room temperature, given as numeric bound.
`C=CC(=O)N1C[C@H](c2nc(C#Cc3cc4ncn(C5CC5)c4cc3F)c3c(N)ncnn23)C[C@@H]1COC` [Example 198, 1-[(2R,4R)-4-{4-Amino-5-[2-(1-cyclopropyl-6-fluoro-1,3-benzodiazol-5-yl)ethynyl]imidazo[4,3-f][1,2,4]triazin-7-yl}-2-(methoxymethyl)pyrrolidin-1-yl]prop-2-en-1-one] had a pIC50 below 6.30.
